Assay results from ChEMBL document CHEMBL1201862, “PubChem BioAssay data set” (2004).
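Method: 48-hour compound exposure of cells in 96-well plates, five concentrations, linear interpolation of endpoints. Here, GI50 denotes the concentration required for 50% inhibition of growth.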 Calls of active or inactive are those of the source. No stated cut-off is given here; in the data, active = GI50 up to about 1.1 µM and inactive = higher.

How the values were obtained:
Assay in all cases: DTP human tumour cell line panel, 48 h
[1] = test system: OVCAR-8
[2] = test system: UACC-257
[3] = test system: A549
[4] = test system: ACHN
[5] = test system: DU-145
[6] = test system: OVCAR-5
[7] = test system: CCRF-CEM
[8] = test system: SK-MEL-28
[9] = test system: CAKI-1
[10] = test system: NCI-H226
[11] = test system: MOLT-4
[12] = test system: SNB-75
[13] = test system: SR
[14] = test system: OVCAR-4
[15] = test system: HCT-116
[16] = test system: HCC 2998
[17] = test system: Malme-3M
[18] = test system: RPMI-8226
[19] = test system: KM12
[20] = test system: SK-MEL-2

| Structure (SMILES) | GI50 [1] | GI50 [2] | GI50 [3] | GI50 [4] | GI50 [5] | GI50 [6] | GI50 [7] | GI50 [8] | GI50 [9] | GI50 [10] | GI50 [11] | GI50 [12] | GI50 [13] | GI50 [14] | GI50 [15] | GI50 [16] | GI50 [17] | GI50 [18] | GI50 [19] | GI50 [20] |
| --- | --- | --- | --- | --- | --- | --- | --- | --- | --- | --- | --- | --- | --- | --- | --- | --- | --- | --- | --- | --- |
| Cc1cc(=O)n2nc(CN3CCCCC3)sc2n1 | > 100 µM (inactive) | > 100 µM (inactive) | > 100 µM (inactive) | > 100 µM (inactive) | > 100 µM (inactive) | > 100 µM (inactive) | > 100 µM (inactive) | > 100 µM (inactive) | > 100 µM (inactive) | > 100 µM (inactive) | > 100 µM (inactive) | 54.5 µM (inactive) | > 100 µM (inactive) | > 100 µM (inactive) | > 100 µM (inactive) | > 100 µM (inactive) | > 100 µM (inactive) | > 100 µM (inactive) | > 100 µM (inactive) | > 100 µM (inactive) |
| CCCCCCNC(=S)N/N=C(\C)c1ccccn1 | 0.0912 µM (active) | 0.01 µM (active) | 0.12 µM (active) | < 0.0113 µM (active) | 1.52 µM (inactive) | 0.728 µM (active) | < 0.01 µM (active) | 2.56 µM (inactive) | < 0.01 µM (active) | 0.138 µM (active) | < 0.01 µM (active) | 3.99 µM (inactive) | < 0.01 µM (active) | 11.4 µM (inactive) | < 0.01 µM (active) | 0.741 µM (active) | 2.65 µM (inactive) | < 0.01 µM (active) | 0.394 µM (active) | 3.09 µM (inactive) |
